Results taken from patent publication US4285956A, “Xanthene and thioxanthene derivatives, compositions thereof and treatment therewith” (priority 1978, dated 1981).
“Also recorded” adds a separate entry of the source.

What was measured:
[1] = Neuroleptic effect: duration and strength (remarks of Table 2); type: in vivo; details: in words; for Duration (remarks, words): duration of neuroleptic effect; for Strength of effect (remarks, words): strength of neuroleptic effect
Text: The pharmacological testing of the novel xanthones and thioxanthenes of Formula I consisted of standard and reliable tests. […]

[2] = Catalepsy wire mesh, rat, max.; type: in vivo, rats; details: for ED50: Rattus norvegicus, sc, rats, s.c., strongest effect within first 6 hours, read-out: Catalepsy wire mesh, rat, max. ED50; for Cataleptic activity: in words
Experimental: Catalepsy wire mesh, rat, max. (ED50 mg/kg s.c.)
A vertical wire netting (50 cm×49 cm). The meshes (openings) of the netting are square (1 cm×1 cm). The wire diameter is 2 mm. Stop watch. Rats, male, 180-200 g.
The animals are labeled and used in groups of five. The test substance is injected subcutaneously (s.c.) (5 ml/kg) at 4 dose levels selected from the fixed dose scale.
The animals are placed in the middle of the vertical wire netting 60, 120, 180, 240, 300 and 360 minutes after injection of the test compound. The animals are considered cataleptic when they remain immobile during a period of 15 seconds. This cataleptic reaction is designated +. If the rats are "atonic" and passively slide down the wire mesh they are considered not cataleptic. If the animals climb up and down the wire mesh they are nor cataleptic. In both situations the designation - is used.

[3] = Methylphenidate antagonism (mice biting corrugated paper); type: in vivo; details: Mus musculus, ip
Experimental: Methylphenidate antagonism (ED50 mg/kg i.p.)
Perspex observation cages without bottom and lid, consisting of 5 sections each measuring 12×25×30 cm. White corrugated paper. Mice, male, 18-25 g.
The test substance is given i.p. in the doses 0, 1/8, 1/32 and 1/128 of the determined "i.p. LD50". 3×2 mice are used for each dose level. Two or 24 hours after injection of test substance, methylphenidate, 60 mg/kg, is injected s.c. After administration of methylphenidate the mice are placed in the observation cages, 2 in each cage, where they remain for exactly 1 hour. The cages are placed on corrugated paper, the corrugations facing upwards. It is examined whether the mice have been biting the corrugated paper or not. […] If one or more of the control pairs have not been biting, the test has to be repeated on a new set of mice.
The result is stated in fractions: 0/3, 1/3, 2/3 and 3/3 where 0, 1, 2 and 3 are the number of pairs which have not been biting on receipt of the dose in question.
The results are calculated as the dose (ED50), which causes antagonism in 50% of the test animals.

[4] = Amphetamine antagonism (stereotypy in rats); type: in vivo; details: Rattus norvegicus
[5] = mice, i.p., methylphenidate 60 mg/kg s.c. 2 h after test substance, read-out: Methylphenidate antagonism ED50, 2 h
[6] = mice, i.p., methylphenidate 60 mg/kg s.c. 24 h after test substance, read-out: Methylphenidate antagonism ED50, 24 h
[7] = ip, 24 h, read-out: Amphetamine antagonism ED50
[8] = 2 h, read-out: Methylphenidate antagonism ED50, 2 h
[9] = po, read-out: Amphetamine antagonism ED50, p.o.
[10] = 24 h, read-out: Methylphenidate antagonism ED50, 24 h

Compound | Duration (remarks, words) [1] | Strength of effect (remarks, words) [1] | ED50 [2] [mg/kg] | ED50 [3, 5] [mg/kg] | ED50 [3, 6] [mg/kg] | ED50 [4, 7] [mg/kg] | ED50 [3, 8] [mg/kg] | Cataleptic activity [2] | ED50 [4, 9] [mg/kg] | ED50 [3, 10] [mg/kg]
COc1ccc2c(c1)C(=C1CCN(C[C@H]3CC[C@H](O)CC3)CC1)c1ccc(F)cc1S2 [Lu 16-052, 1-(trans-4-hydroxycyclohexylmethyl)-4-(2-methoxy-6-fluoro-9-thioxanthenylidene)-piperidine] | short acting | moderately strong | 0.23 | 0.31 | 29 | 0.56 | – | – | – | –
Cc1ccc2c(c1)C(=C1CCN(CCN3CCOC3=O)CC1)c1ccc(F)cc1S2 [Lu 14-070, 1-(2-(2-Oxazolidinon-3-yl)ethyl)-4-(2-methyl-6-fluoro-9-thioxanthenylidene)-piperidine] | short acting | moderately strong | 1.8 | 0.32 | > 40 | 1.3 | – | – | – | –
O=C(CCCN1CCC(O)(c2ccc(Cl)cc2)CC1)c1ccc(F)cc1 [haloperidol, reference compound] | short acting | very strong | 0.21 | – | – | 0.14 | 0.06 | – | – | –
O[C@H]1CCC[C@H](CN2CCC(=C3c4ccc(F)cc4Sc4ccc(C(F)(F)F)cc43)CC2)C1 (relative stereo) [Lu 15-030, 1-(trans-3-hydroxycyclohexylmethyl)-4-(2-trifluoromethyl-6-fluoro-9-thioxanthenylidene)-piperidine] | long acting | very strong | 0.39 | 0.28 | 0.05 | 0.88 | – | have a cataleptic activity | – | –
N[C@H]1CC[C@H](CN2CCC(=C3c4ccc(F)cc4Sc4ccc(C(F)(F)F)cc43)CC2)CC1 [Lu 16-042] | long acting | strong | 3.3 | 1.2 | 0.17 | – | – | – | 2.5 | –
O=C1NCCN1CCN1CCC(=C2c3ccccc3Sc3ccc(Cl)cc32)CC1 [Lu 16-105] | short acting | strong | 0.38 | 0.16 | 28 | 1.2 | – | – | – | –
O[C@H]1CC[C@@H](CN2CCC(=C3c4ccc(F)cc4Sc4ccc(C(F)(F)F)cc43)CC2)CC1 [Lu 15-013, 1-(cis-4-hydroxycyclohexylmethyl)-4-(2-trifluoromethyl-6-fluoro-9-thioxanthenylidene)piperidene] | long acting | strong | 1.2 | 0.63 | 0.1 | 0.76 | – | – | – | –
CN1CCN(C2=Nc3cc(Cl)ccc3Nc3ccccc32)CC1 [clozapine, reference compound] | short acting | weak | 85 | – | – | > 40 | > 160 | – | – | –
O=C1OCCN1CCN1CCC(=C2c3ccccc3Sc3ccc(Cl)cc32)CC1 [Lu 14-106, 1-(2-(2-Oxazolidinone-3-yl)ethyl)-4-(2-chloro-9-thioxanthenylidene)piperidine] | short acting | strong | 6.6 | 0.51 | > 40 | 1 | – | – | – | –
OCCN1CCN(CCCN2c3ccccc3Sc3ccc(C(F)(F)F)cc32)CC1 [fluphenazine, reference compound] | short acting | very strong | 0.099 | – | – | 0.08 | 0.04 | – | – | 3.6
OC1CC(O)(CN2CCC(=C3c4ccc(F)cc4Sc4ccc(C(F)(F)F)cc43)CC2)CC(O)C1O (stereo not shown) [Lu 15-089] | relatively short acting | – | 2.7 | 0.32 | 0.32 | 1.8 | – | – | – | –
Fc1ccc2c(c1)Sc1ccc(C(F)(F)F)cc1C2=C1CCN(CC2CCOCO2)CC1 (stereo not shown) [Lu 14-130, 1-(1,3-Dioxan-4-ylmethyl)-4-(2-trifluoromethyl-6-fluoro-9-thioxanthenylidene)piperidine] | long acting | moderately strong | 2.8 | 0.77 | 0.7 | 0.62 | – | – | – | –
OCCN1CCN(CCC=C2c3ccccc3Sc3ccc(Cl)cc32)CC1 [clopenthixol, reference compound] | short acting | moderately strong | 0.95 | 1.2 | – | 0.77 | – | – | – | –
CSc1ccc2c(c1)C(=C1CCN(C[C@H]3CC[C@H](O)CC3)CC1)c1ccc(F)cc1S2 [Lu 14-116, 1-(trans-4-hydroxycyclohexylmethyl)-4-(2-methylthio-6-fluoro-9-thioxanthenylidene)-piperidine] | long acting | strong | 0.58 | 0.44 | 0.38 | 0.28 | – | – | – | –
O[C@@H]1CC[C@H](CN2CCC(=C3c4ccc(F)cc4Sc4ccc(C(F)(F)F)cc43)CC2)C[C@H]1O (relative stereo) [Lu 15-052, 1-(3-trans-4-cis-dihydroxycyclohexylmethyl)-4-(2-trifluoromethyl-6-fluoro-9-thioxanthenylidene)-piperidine] | long acting | strong; also recorded: very strong | 0.026 | 0.32 | 0.06 | 0.9 | – | have a cataleptic activity | – | –
O[C@H]1CC[C@H](CN2CCC(=C3c4ccccc4Sc4ccc(Cl)cc43)CC2)CC1 [Lu 14-047, 1-(trans-4-hydroxycyclohexylmethyl)-4-(2-chloro-9-thioxanthenylidene)-piperidine] | short acting | strong | 3.5 | 0.59 | > 20 | 0.32 | – | – | – | –
Cc1ccc2c(c1)Sc1ccc(C(F)(F)F)cc1C2=C1CCN(C[C@H]2CC[C@H](O)CC2)CC1 [Lu 16-014, 1-(trans-4-hydroxycyclohexylmethyl)-4-(2-trifluoromethyl-6-methyl-9-thioxanthenylidene)-piperidine] | long acting | moderately strong | 0.97 | 0.31 | 1.9 | 1 | – | – | – | –
OCCN1CCN(CCC=C2c3ccccc3Sc3ccc(C(F)(F)F)cc32)CC1 [flupentixol, reference compound] | short acting | strong | 0.25 | – | – | 0.69 | 0.2 | – | – | > 20
O=C1CCC(CN2CCC(=C3c4ccc(F)cc4Sc4ccc(C(F)(F)F)cc43)CC2)CC1 [Lu 16-088] | long acting | strong | 0.81 | 0.77 | 0.06 | – | – | – | 0.3 | –
CSc1ccc2c(c1)C(=C1CCN(C[C@H]3CC[C@H](O)CC3)CC1)c1ccccc1S2 [Lu 15-019, 1-(trans-4-hydroxycyclohexylmethyl)-4-(2-methylthio-9-thioxanthenylidene)-piperidine] | short acting | moderately strong | 0.6 | 0.77 | > 40 | 0.59 | – | – | – | –
